target: T1, recombinant human GR (Homo sapiens, UniProt P04150); test: Human Glucocorticoid Receptor (GR) Assay (fluorescence polarization competition, Panvera/Invitrogen kit); settings: GS Red Fluoromone tracer, 2 hours at room temperature, 100% control 10 μM Dexamethasone, read-out: Inhibition of GR binding, IC50
T1 construct: purchased Panvera/Invitrogen P2812 (kit P2893)
T1 sequence (P04150 1-777): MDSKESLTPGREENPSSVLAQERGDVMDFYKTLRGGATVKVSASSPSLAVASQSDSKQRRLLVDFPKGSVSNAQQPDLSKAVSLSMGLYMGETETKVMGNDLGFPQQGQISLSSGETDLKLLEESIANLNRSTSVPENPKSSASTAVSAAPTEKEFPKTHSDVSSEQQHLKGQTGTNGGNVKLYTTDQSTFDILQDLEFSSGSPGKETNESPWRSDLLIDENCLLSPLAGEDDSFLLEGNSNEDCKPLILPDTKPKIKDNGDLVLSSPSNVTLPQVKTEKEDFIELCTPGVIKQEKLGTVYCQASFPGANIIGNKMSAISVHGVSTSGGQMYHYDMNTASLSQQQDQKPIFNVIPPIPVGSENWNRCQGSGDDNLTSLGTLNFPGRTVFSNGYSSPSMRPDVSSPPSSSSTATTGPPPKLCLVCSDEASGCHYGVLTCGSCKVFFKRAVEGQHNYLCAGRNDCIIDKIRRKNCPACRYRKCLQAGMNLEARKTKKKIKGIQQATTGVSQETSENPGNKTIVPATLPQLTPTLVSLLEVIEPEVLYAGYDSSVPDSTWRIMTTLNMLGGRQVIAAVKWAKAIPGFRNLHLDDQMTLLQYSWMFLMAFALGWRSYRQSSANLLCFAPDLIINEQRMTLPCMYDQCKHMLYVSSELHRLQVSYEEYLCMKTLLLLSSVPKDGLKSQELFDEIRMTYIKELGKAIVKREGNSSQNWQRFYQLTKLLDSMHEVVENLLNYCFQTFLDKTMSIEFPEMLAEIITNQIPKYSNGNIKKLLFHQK
Procedure: Human Glucocorticoid Receptor (GR) Assay The assay is based on a commercial kit from Panvera/Invitrogen (Part number P2893). The assay technology is fluorescence polarization. The kit utilises recombinant human GR (Panvera, Part number P2812), a Fluoromone™ labelled tracer (GS Red, Panvera, Part number P2894) and a Stabilizing Peptide 10× (Panvera, Part number P2815). The GR and Stabilizing Peptide reagents are stored at −70° C. while the GS Red is stored at −20° C. Also included in the kit are 1M DTT (Panvera, Part number P2325, stored at −20° C.) and GR Screening buffer 10× (Panvera, Part number P2814, stored at −70° C. initially but once thawed stored at room temperature). Avoid repeated freeze/thaws for all reagents. The GR Screening buffer 10× comprises 100 mM potassium phosphate, 200 mM sodium molybdate, 1 mM EDTA and 20% DMSO. Test compounds (1 μL) and controls (1 μL) in 100% DMSO were added to black is polystyrene 384-well plates (Greiner low volume black flat-bottom, part number 784076). 0% control was 100% DMSO and 100% control was 10 μM Dexamethasone. Background solution (8 μL; assay buffer 10×, Stabilizing Peptide, DTT and ice cold MQ water) was added to the background wells. GS Red solution (7 μL; assay buffer 10×, Stabilizing Peptide, DTT, GS Red and ice cold water) was added to all wells except background wells. GR solution (7 μL; assay buffer 10×, Stabilizing Peptide, DTT, GR and ice cold water) was added to all wells. The plate was sealed and incubated in a dark at room temperature for 2 hours. The plate was read in an Analyst plate reader (LJL Biosystems/Molecular Devices Corporation) or other similar plate reader capable of recording fluorescence polarization (excitation wavelength 530 nm, emission wavelength 590 nm and a dichroic mirror at 561 nm).

IC50	SMILES
3.5 nM	COCC(=O)O[C@]1(C(=O)SCF)[C@H](C)C[C@H]2[C@@H]3CCC4=Cc5c(cnn5-c5ccc(F)nc5)C[C@]4(C)[C@@]3(F)[C@@H](O)C[C@@]21C [Example 1, (1R,2R,3aS,3bS,10aS,10bR,11S,12aS)-10b-Fluoro-1-{[(fluoromethyl)sulfanyl]carbonyl}-7-(6-fluoropyridin-3-yl)-11-hydroxy-2,10a,12a-trimethyl-1,2,3,3a,3b,4,5,7,10,10a,10b,11,12,12a-tetradecahydrocyclopenta[5,6]naphtho[1,2-f]indazol-1-yl methoxyacetate]
0.55 nM	C[C@]12Cc3cnn(-c4ccc(F)nc4)c3C=C1CC[C@H]1[C@@H]3CC[C@](OC(=O)[C@@H]4CCCO4)(C(=O)SCC#N)[C@@]3(C)C[C@H](O)[C@@]12F [Example 17, (1R,3aS,3bS,10aS,10bR,11S,12aS)-1-{[(Cyanomethyl)sulfanyl]carbonyl}-10b-fluoro-7-(6-fluoropyridin-3-yl)-11-hydroxy-10a,12a-dimethyl-1,2,3,3a,3b,4,5,7,10,10a,10b,11,12,12a-tetradecahydrocyclopenta[5,6]naphtho[1,2-f]indazol-1-yl (2S)-tetrahydrofuran-2-carboxylate]
1.9 nM	CCC(=O)O[C@]1(C(=O)SCF)[C@H](C)C[C@H]2[C@@H]3CCC4=Cc5c(cnn5-c5ccc(F)nc5)C[C@]4(C)[C@@]3(F)[C@@H](O)C[C@@]21C [Example 2, (1R,2R,3aS,3bS,10aS,10bR,11S,12aS)-10b-Fluoro-1-{[(fluoromethyl)sulfanyl]carbonyl}-7-(6-fluoropyridin-3-yl)-11-hydroxy-2,10a,12a-trimethyl-1,2,3,3a,3b,4,5,7,10,10a,10b,11,12,12a-tetradecahydrocyclopenta[5,6]naphtho[1,2-f]indazol-1-yl propanoate]
0.89 nM	C[C@H]1C[C@@H]2[C@H]([C@@H](O)C[C@@]3(C)[C@H]2CC[C@]3(OC(=O)c2cocn2)C(=O)SCC#N)[C@@]2(C)Cc3cnn(-c4ccc(F)nc4)c3C=C12 [Example 10, (1R,3aS,3bS,5S,10aR,10bS,11S,12aS)-1-{[(Cyanomethyl)sulfanyl]carbonyl}-7-(6-fluoropyridin-3-yl)-11-hydroxy-5,10a,12a-trimethyl-1,2,3,3a,3b,4,5,7,10,10a,10b,11,12,12a-tetradecahydrocyclopenta[5,6]naphtho[1,2-f]indazol-1-yl 1,3-oxazole-4-carboxylate]
0.93 nM	COCC(=O)O[C@]1(C(=O)SCF)CC[C@H]2[C@@H]3C[C@H](C)C4=Cc5c(cnn5-c5ccc(F)nc5)C[C@]4(C)[C@H]3[C@@H](O)C[C@@]21C [Example 8, (1R,3aS,3bS,5S,10aR,10bS,11S,12aS)-1-{[(Fluoromethyl)sulfanyl]carbonyl}-7-(6-fluoropyridin-3-yl)-11-hydroxy-5,10a,12a-trimethyl-1,2,3,3a,3b,4,5,7,10,10a,10b,11,12,12a-tetradecahydrocyclopenta[5,6]naphtho[1,2-f]indazol-1-yl methoxyacetate]
1.3 nM	C[C@]12Cc3cnn(-c4ccc(F)nc4)c3C=C1CC[C@H]1[C@@H]3CC[C@](OC(=O)C4CCOC4)(C(=O)SCF)[C@@]3(C)C[C@H](O)[C@@]12F (single isomer, unassigned) [16 (S)/(R) isomer]
6 nM	COCC(=O)O[C@]1(C(=O)SCC#N)[C@H](C)C[C@H]2[C@@H]3CCC4=Cc5c(cnn5-c5ccc(F)cc5)C[C@]4(C)[C@@]3(F)[C@@H](O)C[C@@]21C [Example 27, (1R,2R,3aS,3bS,10aS,10bR,11S,12aS)-10b-Fluoro-1-{[(cyanomethyl)sulfanyl]carbonyl}-7-(4-fluorophenyl)-11-hydroxy-2,10a,12a-trimethyl-1,2,3,3a,3b,4,5,7,10,10a,10b,11,12,12a-tetradecahydrocyclopenta[5,6]naphtho[1,2-f]indazol-1-yl methoxyacetate]

Reference: patent publication US8338587B2, “Compounds” (AstraZeneca AB, priority 2009, dated 2012)
